The subject of one series is HeLa_Luc705 cells. In words: Splice switching activity assay, 24 hr SMC treatment, Examples 4B/4D. Type of series: cell-based. The procedure:
(§1) HeLa_Luc705 cells were seeded in 96-well plates at 10,000 cells per well in growth media with 2 μM Luc705-SSO or 1 μM Luc705-SSO. The various SMCs were diluted directly into prepared growth media. After 24 hr to allow adherence and SSO internalization, 10 μl of diluted SMC was added into each well at indicated concentrations. For a positive control, SSOs were complexed with Lipofectamine 2000 for 30 min at RT and cells treated with a final concentration of 200 nM. ON concentrations above 200 nM would require LF2000 to be used in excess of the cells' toxicity threshold. After 24 hr treatment, cells were lysed with 0.1% TritonX-100 (Sigma Aldrich, cat no. X100) in 1× PBS (Gibco, cat no. 10010023).
(§2) For the detection of luciferase activity, 30 μL of cell lysate was transferred to white-walled plates. The luciferase intensity in each well was immediately measured via luminometer following auto-injection of 25 μL Luciferin substrate as per the Promega Firefly Luciferase Assay System. The timing parameters of photon measurements were optimized for this procedure.
(§3) The various SMCs were diluted directly into prepared growth media. After 24 hr to allow adherence and SSO internalization, 10 μl of diluted SMC was added into each well at indicated concentrations. For a positive control, SSOs were complexed with Lipofectamine 2000 for 30 min at RT and cells treated with a final concentration of 200 nM. ON concentrations above 200 nM would require LF2000 to be used in excess of the cells' toxicity threshold. After 24 hr treatment, cells were lysed with 0.1% TritonX-100 (Sigma Aldrich, cat no. X100) in 1× PBS (Gibco, cat no. 10010023).

A further series relates to HeLa mCherry-Gal9 cells. In words: mCherry-GAL9 recruitment assay. Type of series: cell-based. The text has this: (§4) All compounds were subjected to a mCherry-GAL9 recruitment assay. Under normal conditions, mCherry-GAL9 is homogenously dispersed in the cytosol. When an endosomal leakage event is detected, mCherry-GAL9 translocates to the damaged endosome (Du Rietz et al. (2020) Nat. Commun. 11:1809) The resulting localization pattern of discrete puncta can be visualized and quantitated.
(§5) HeLa and Huh7 cell lines stably expressing mCherry-GAL9 were generated as described by (bioRxiv) (Munson, M. et al. (2021) Communications Biology, 4(211): 1-14) and seeded into 384-well CellCarrier Ultra plates (PerkinElmer: 6007558) at 3000 or 3500 cells/well respectively, 16 h before experimental usage.
(§6) Dose-response curves of select compounds were generated using an Echo 655T acoustic dispenser (Labcyte) to dispense the indicated compounds into source plates (Greiner: 781280) containing growth media. At experimental start points, media containing appropriate compounds and doses was transferred to plates using a liquid handling robot (Agilent Bravo).
(§7) At assay endpoints, cells were washed 2× PBS at RT and fixed in 4% PFA (VWR: 9713.1000) for 15 mins/RT. Cells were washed a further 3× PBS before the addition of PBS+1 μg/ml Hoechst 33342 (ThermoFisher Scientific: H21492) for a minimum of 1 h before imaging.
(§8) Plates were imaged using a spinning-disk confocal microscope (Yokogawa: CV7000) with a 20× objective (NA 0.75). Images were processed utilizing Columbus image-analysis software (PerkinElmer: v2.9.0) to identify and quantify cells and mCherry-GAL9 structures. The resulting data were processed and normalized in Spotfire (Tibco: v10.3) and plotted in Prism (Graphpad: v8.0.1). Image panels were assembled using the FigureJ plugin for FIJI. (Mutterer and Zinck (2013) J. Microsc. 252(1):89-91).
(§9) Cells were subjected to a 10-point concentration dilution (0-15 μM) for 2 hours and then fixed and imaged (FIG. 3 and FIG. 4). Images were analyzed and curves were generated from both mCherry-GAL9 puncta quantitation and cell survival as determined by nuclear morphology (FIG. 5). The GAL9 recruitment response support the functional splice-switching data with SSOs, confirming the mCherry-GAL9 assay as a powerful tool for screening endosomolytic compounds and supporting the hypothesis that AZ2467 (Compound 6) and AZ4800 (Compound 2) promote SSO activity by inducing endosomal rupture. The GAL9 assay was again conducted, this time in live cells for 4 hours with select compounds for screening. Compounds were screened at 5 μM (FIG. 6-8) or 0.3125-10 μM (FIG. 35-38). FIG. 39 and FIG. 47 provide results for select compounds at various doses 0.3125-10 μM.

Another series relates to Huh7 mCherry-Gal9 cells. In words: mCherry-GAL9 recruitment assay. Type of series: cell-based.
Excerpt: as §4, §5, §6, §7, §8, §9

For a further series, the system named is mCherry-GAL9 cells. In words: mCherry-GAL9 assay in live cells for 4 hours, screening. Type of series: cell-based. The settings on record: 5 μM (FIG. 6-8). How it is done: as §9
For series [1], the system named is anti-CD3/28 stimulated T cells. In words: Co-delivery of Cre recombinase, ex vivo editing of T cells. Type of series: cell-based, mice. How it is done:
The combination of Cre recombinase with Compound 4 was also tested in ex vivo editing of anti-CD3/28 stimulated T cells. […], then treated with 2.5 μM of Compound 4 with varying concentrations of Cre recombinase (50, 100, 200, 500 and 1000 nM), either on a U-plate with no mixing (T1) or mixed in a tube shaker during treatment (T2).

In another series the test system is N2A_Luc705 cells. In words: Splice switching activity assay, 24 hr SMC treatment, Examples 4C/4D. Type of series: cell-based. The conditions noted are these: 2.5 μM compound, 1 μM SSO, FIG. 27. How it is done: as §1, with “U2OS_Luc705 and N2A_Luc705” for “HeLa_Luc705”, “with” for “with 2 μM Luc705-SSO or”
as §2, §3

The test system of another series is U2OS_Luc705 cells. The series is described as above. Type of series: cell-based. The settings on record: 2.5 μM compound, 1 μM SSO, FIG. 27. The procedure: as §1, with “U2OS_Luc705 and N2A_Luc705” for “HeLa_Luc705”, “with” for “with 2 μM Luc705-SSO or”
as §2, §3

[2] abbreviates: non-activated T cells, FIG. 45A.

As to `COc1nn(C2CCNCC2)cc1Nc1ncc(Cl)c(-n2ccc3c(C#N)cccc32)n1` [Compound 2], in the series with HeLa_Luc705 cells (2 μM Luc 705 SSO, FIG. 26), the “increase in SSO activity” value is “induced an increase in SSO activity”. In addition, the “relocalisation of Gal9 from cytosolic to punctate” value in the series on HeLa mCherry-Gal9 cells (10-point dose titration, 2 hours, FIG. 3) is recorded as “dose-dependent manner”; in the series with Huh7 mCherry-Gal9 cells (10-point dose titration, 2 hours, FIG. 4), “dose-dependent manner”. Further, the “endosomal rupture, decrease of 488-SSO puncta” value with HeLa mCherry-Gal9 cells (FIG. 16A) is “time and concentration-dependent manner”; in the series with Huh7 mCherry-Gal9 cells (FIG. 16B), “time and concentration-dependent manner”. The “quantitation of GAL9 (mCherry-GAL9 puncta)” value was “time and concentration-dependent responses” in the series with HeLa mCherry-Gal9 cells (FIG. 17A); “time and concentration-dependent responses” with Huh7 mCherry-Gal9 cells (FIG. 17B). Moreover, the “window in concentration between induction of endosomal rupture and cytotoxicity” value in the series on HeLa mCherry-Gal9 cells (HeLa, FIG. 5) is given as “narrow window”; in the series on Huh7 mCherry-Gal9 cells (Huh7, FIG. 5), “narrow window”. In addition, the “quantitation of Gal9 recruitment over time” value in the series with HeLa mCherry-Gal9 cells (HeLa, FIG. 8) is listed as “time-dependent endosomal rupture”; in the series on Huh7 mCherry-Gal9 cells (Huh7, FIG. 7), “time-dependent endosomal rupture”. Besides, the “A488-positive structures (A488-SSO) after treatment” value in the series with HeLa mCherry-Gal9 cells (preloaded 1 μM A488-SSO, FIG. 15A) was “gradually disappeared over 2 hours”; with Huh7 mCherry-Gal9 cells (preloaded 1 μM A488-SSO, FIG. 15B) it was “gradually disappeared over 2 hours”. In the series with Huh7 mCherry-Gal9 cells (60 min, Huh7), the “Gal9 recruitment signal, puncta per relative nuclear signal” value was “highest overall induced signal”. In addition, the “GAL9 recruitment, reason for selection for further characterization” value in the series on mCherry-GAL9 cells is given as “efficacy at shorter-term timepoints”.

On to `COc1nn(C2CCNCC2)cc1Nc1ncc(F)c(-n2ccc3c(C#N)cccc32)n1` [Compound 4], for which the “increase in SSO activity” value in the series on HeLa_Luc705 cells (2 μM Luc 705 SSO, FIG. 24) is on record as “increase in SSO activity”; in the series with HeLa_Luc705 cells (2 μM Luc 705 SSO, FIG. 26), “induced an increase in SSO activity”; in the series on HeLa_Luc705 cells (2 μM SSO, FIG. 23A) it was “increase in SSO activity”. Moreover, the “activity of the oligo as compared to oligo only” value in the series on HeLa_Luc705 cells (2.5 μM compound, 1 μM SSO, FIG. 27) is on record as “enhanced activity of the oligo as compared to oligo only”; in the series on N2A_Luc705 cells it was “enhanced activity of the oligo as compared to oligo only”; in the series on U2OS_Luc705 cells, “enhanced activity of the oligo as compared to oligo only”. Also, the “increase in SSO activity over 1 μM naked SSO” value in the series on HeLa_Luc705 cells (higher concentrations of AZ3327, FIG. 23B) is given as “increase in SSO activity”. In addition, the “GAL9 response, rank among exemplified compounds” value was “most potent response” in the series on HeLa mCherry-Gal9 cells (doses 1.25-5 μM, 1, 2, 16 hours, FIG. 34) and “most potent response” with Huh7 mCherry-Gal9 cells (doses 1.25-5 μM, 1, 2, 16 hours, FIG. 33). In addition, in the series with Huh7 mCherry-Gal9 cells (0.25 to 4 hours, 0.31 to 10 μM, FIG. 40), the “GAL9 response, rank” value was “most potent”. This compound gave a dose from which GAL9+ responses are seen with Huh7 mCherry-Gal9 cells (after 15 mins, FIG. 40) of at least 1.25 µM. Moreover, the editing efficiency entry in series [1] (activated T cells, 2.5 μM compound, FIG. 45C) is given as “greater than 90%”. Moreover, the proliferative capacity result in series [1] (activated T cells, FIG. 45C) is “without affecting proliferative capacity”. Besides, the editing result in series [1] (setting [2]) is “highly edited”. Also, in series [1] (setting [2]), the proliferation rate result is “compromised”.

The values are drawn from patent US20260137807A1, “COMPOSITIONS AND METHODS FOR DELIVERING A MACROMOLECULE TO A CELL” (AstraZeneca AB, priority 2022, published 2026).
